From US8394797B2, “Substituted pyrazole sigma receptor antagonists” (Laboratorios Del Dr. Esteve, S.A., priority 2004, dated 2013)
Counter-ions that a name gives are not always drawn.

Experiments:
[1] = biological target: T1, σ1-receptor (Cavia porcellus, UniProt Q60492); test: Sigma-1 receptor binding, [3H](+)-pentazocine, brain membranes; parameters: species or system guinea pig; conditions: for inhibition at 1 µM: 2.5 h, tested compound at 10^-6 M, [3H](+)-pentazocine 0.5 nM, read-out: binding sigma-1 (*) % of radioactively labeled compound replaced by the tested compound; for Ki: [3H](+)-pentazocine, guinea pig brain membranes, read-out: binding sigma-1 Ki
T1 construct: guinea pig brains were homogenized; from tissue; host or cells: guinea pig brain membranes
T1 sequence (Q60492 whole entry): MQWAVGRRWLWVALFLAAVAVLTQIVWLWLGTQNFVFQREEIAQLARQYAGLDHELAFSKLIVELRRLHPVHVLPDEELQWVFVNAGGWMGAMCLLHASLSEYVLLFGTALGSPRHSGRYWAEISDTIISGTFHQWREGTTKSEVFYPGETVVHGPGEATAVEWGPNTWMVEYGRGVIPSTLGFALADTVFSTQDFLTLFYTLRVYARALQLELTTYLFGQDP

[2] = biological target: T2, σ2-receptor (Mus musculus, UniProt Q8VD00); test: Sigma-2 receptor binding, [3H]-DTG, brains from sigma-1 knockout mice; conditions: for inhibition at 1 µM: 2 h, tested compound at 10^-6 M, [3H]-DTG 3 nM, read-out: binding sigma-2 (*) % of radioactively labeled compound replaced by the tested compound; for Ki: [3H]-DTG, sigma-1 knockout mouse brain
T2 construct: brains from sigma receptor type I (sigma-1) knockout mice were homogenized; from tissue; host or cells: brain membranes of sigma-1 knockout mice
T2 sequence (Q8VD00 1-176): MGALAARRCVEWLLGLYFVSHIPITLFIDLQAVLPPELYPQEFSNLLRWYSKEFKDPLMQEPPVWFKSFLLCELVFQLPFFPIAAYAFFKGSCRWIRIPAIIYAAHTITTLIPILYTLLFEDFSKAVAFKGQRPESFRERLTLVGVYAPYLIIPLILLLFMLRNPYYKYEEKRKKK
Procedure: In brief, brains from sigma receptor type I (sigma-1) knockout mice were homogenized in a volume of 10 mL/g tissue net weight of ice-cold 10 mM Tris-HCl, pH 7.4, containing 320 mM sucrose (Tris-sucrose buffer) with a Potter-Elvehjem homogenizer (10 strokes at 500 r.p.m.) The homogenates were then centrifuged at 1000 g for 10 min at 4° C., and the supernatants were saved. The pellets were resuspended by vortexing in 2 mL/g ice-cold Tris-sucrose buffer and centrifuged again at 1000 g for 10 min. The combined 1000 g supernatants were centrifuged at 31000 g for 15 min at 4° C. The pellets were resuspended by vortexing in 3 mL/g 10 mM Tris-HCl, pH 7.4, and the suspension was kept at 25° C. for 15 min.
The assay tubes contained 10 μL of [^3H]-DTG (final concentration of 3 nM), 400 μL of the tissue suspension (5.3 mL/g in 50 mM Tris-HCl, pH 8.0) to a final assay volume of 0.5 mL. Non-specific binding was defined by addition of a final concentration of 1 μM haloperidol. […] Filters were washed with three times with 5 mL volumes of cold Tris-HCl buffer (10 mM, pH 8.0). Following addition of scintillation cocktail samples were allowed to equilibrate overnight.

SMILES	inhibition at 1 µM [1] [%]	Ki [1] [nM]	inhibition at 1 µM [2] [%]	Ki [2] [nM]	melting point [°C]
Clc1ccc(-n2ncc3c2CCCC3CCN2CCC(c3ccccc3)CC2)cc1Cl (stereo not shown) [Example 4, 1-(3,4-dichlorophenyl)-4,5,6,7-tetrahydro-4-(2-(4-phenylpiperidin-1-yl)ethyl)-1H-indazole oxalate]	100	10.6	98	316	–
C[C@@H]1CN(CCC2CCc3c2cnn3-c2ccccc2)C[C@H](C)O1.O=C(O)C(=O)O (stereo partly drawn) [Example 47, cis-1,4,5,6-tetrahydro-4-(2-(2,6-dimethylmorpholin-4-yl)ethyl)-1-phenylcyclopenta-[c]pyrazole oxalate]	104	1.8	95.9	–	160.2 to 161.5
Cn1ncc2c1CCCC2CCN1Cc2ccccc2C1.O=C(O)C(=O)O (stereo not shown) [Example 60, 4,5,6,7-tetrahydro-4-(2-(isoindolin-2-yl)ethyl)-1-methyl-1H-indazole oxalate]	104	3.1	88.2	18.8	150 to 151
c1ccc(-n2ncc3c2CCC3CCN2CCCCC2)cc1 (stereo not shown) [Example 37, 1,4,5,6-tetrahydro-1-phenyl-4-(2-(piperidin-1-yl)ethyl)cyclopenta[c]pyrazole]	102	1.1	79.9	–	–
C[C@@H]1CN(CCC2CCCc3c2cnn3-c2ccc(F)cc2)C[C@H](C)O1.O=C(O)C(=O)O (stereo partly drawn) [Example 68, cis-1-(4-fluorophenyl)-4,5,6,7-tetrahydro-4-(2-(2,6-dimethylmorpholin-4-yl)ethyl)-1H-indazole oxalate]	98	14.9	99.8	35.2	164 to 169
c1ccc(-n2ncc3c2CCC3CCN2CCCC2)cc1 (stereo not shown) [Example 40, 1,4,5,6-tetrahydro-1-phenyl-4-(2-(pyrrolidin-1-yl)ethyl)cyclopenta[c]pyrazole oxalate]	101	3.5	97.3	–	–
C[C@@H]1CN(CCC2CCCc3c2cnn3-c2ccccc2)C[C@H](C)O1.O=C(O)C(=O)O (stereo partly drawn) [Example 49, cis-4,5,6,7-tetrahydro-4-(2-(2,6-dimethylmorpholin-4-yl)ethyl)-1-phenyl-1H-indazole oxalate]	101	7.6	94.6	–	186.6 to 190
CC1CCN(CCC2CCc3c2cnn3-c2ccccc2)CC1 (stereo not shown) [Example 99, 1,4,5,6-tetrahydro-4-(2-(4-methylpiperidin-1-yl)ethyl)-1-phenylcyclopenta[c]pyrazole oxalate]	102	1.5	–	–	–
C(/CN1CCC(c2ccccc2)C1)=C1/CCCc2c1cnn2-c1ccccc1.O=C(O)C(=O)O (stereo not shown)	–	–	–	–	178 to 181
O=C(O)C(=O)O.c1ccc(CN2CCN(CCC3CCc4c3cnn4-c3ccccc3)CC2)cc1 (stereo not shown)	–	–	–	–	215 to 218
c1ccc(-n2ncc3c2CCC3CCN2CCSCC2)cc1 (stereo not shown) [Example 97, 1,4,5,6-tetrahydro-1-phenyl-4-[2-(thiomorpholin-4-yl)ethyl]cyclopenta[c]pyrazole oxalate]	102	0.62	–	–	–
Fc1ccc(-n2ncc3c2CCCC3CCN2CCC(c3ccccc3)CC2)cc1 (stereo not shown) [Example 72, 1-(4-fluorophenyl)-4,5,6,7-tetrahydro-4-(2-(4-phenylpiperidin-1-yl)ethyl)-1H-indazole]	–	–	–	–	93 to 94.5
O=C(O)C(=O)O.c1ccc(-n2ncc3c2CCCC3CCN2CCCCC2)cc1 (stereo not shown) [Example 14, 4,5,6,7-tetrahydro-1-phenyl-4-(2-(piperidin-1-yl)ethyl)-1H-indazole oxalate]	99.8	2.3	89	–	185 to 188
O=C(O)C(=O)O.c1ccc(-n2ncc3c2CCC3CCN2CCc3ccccc3C2)cc1 (stereo not shown) [Example 44, 1,2,3,4-tetrahydro-2-(2-(1,4,5,6-tetrahydro-1-phenylcyclopenta[c]pyrazol-4-yl)ethyl)isoquinoline oxalate]	106	2	99.4	159	200.5 to 203
CN(CCC1CCCc2c1cnn2-c1ccc(F)cc1)Cc1ccccc1 (stereo not shown) [Example 69, N-benzyl-2-(1-(4-fluorophenyl)-4,5,6,7-tetrahydro-1H-indazol-4-yl)-N-methylethanamine]	103	2.6	99.3	21.7	–
Fc1ccc(-n2ncc3c2CCCC3CCN2Cc3ccccc3C2)cc1 (stereo not shown) [Example 70, 1-(4-fluorophenyl)-4,5,6,7-tetrahydro-4-(2-(isoindolin-2-yl)ethyl)-1H-indazole]	100	16.2	108	14.4	–

SMILES	inhibition at 1 µM [1] [%]	Ki [1] [nM]	inhibition at 1 µM [2] [%]	Ki [2] [nM]	melting point [°C]
c1ccc(-n2ncc3c2CCCC3CCN2CCOCC2)cc1 (stereo not shown) (as salt: oxalate) [Example 2, 4,5,6,7-tetrahydro-4-(2-(morpholin-4-yl)ethyl)-1-phenyl-1H-indazole oxalate]	–	–	–	–	150 to 151
Clc1ccc(-n2ncc3c2CCCC3CCN2CCC(c3ccccc3)CC2)cc1Cl (stereo not shown) (as salt: oxalate) [Example 4, 1-(3,4-dichlorophenyl)-4,5,6,7-tetrahydro-4-(2-(4-phenylpiperidin-1-yl)ethyl)-1H-indazole oxalate]	–	–	–	–	133 to 134
Fc1ccc(-n2ncc3c2CCCC3CCN2Cc3ccccc3C2)cc1.O=C(O)C(=O)O (stereo not shown)	–	–	–	–	176 to 179
CN(CCC1CCc2c1cnn2-c1ccccc1)Cc1ccccc1 (stereo not shown) [Example 52, N-benzyl-2-(1,4,5,6-tetrahydro-1-phenylcyclopenta[c]pyrazol-4-yl)-N-methylethanamine]	106	3.9	104	–	–
O=C(O)C(=O)O.c1ccc(N2CCN(CCC3CCCc4c3cnn4-c3ccccc3)CC2)cc1 (stereo not shown)	–	–	–	–	177 to 180
C(/CN1Cc2ccccc2C1)=C1/CCCc2c1cnn2-c1ccccc1	–	–	–	–	130 to 131
CC1CCN(CCC2CCCc3c2cnn3-c2ccccc2)CC1 (stereo not shown) [Example 94, 4,5,6,7-Tetrahydro-4-(2-(4-methylpiperidin-1-yl)ethyl)-1-phenyl-1H-indazole oxalate]	103	1.9	–	–	–
C(/CN1CCC(c2ccccc2)CC1)=C1/CCCc2c1cnn2-c1ccccc1 [Example 17, (E)-4,5,6,7-tetrahydro-1-phenyl-4-(2-(4-phenylpiperidin-1-yl)ethylidene)-1H-indazole]	100	2.5	83.8	186	–
Cn1ncc2c1CCCC2CCN1CCOCC1.O=C(O)C(=O)O (stereo not shown)	–	–	–	–	137.7 to 139.3
O=C(O)C(=O)O.c1ccc(-n2ncc3c2CCCC3CCN2CCOCC2)cc1 (single isomer, unassigned; (+)) [Example 74, (+)-4,5,6,7-tetrahydro-4-(2-(morpholin-4-yl)ethyl)-1-phenyl-1H-indazole oxalate]	–	–	–	–	175 to 176
C(/CN1CCc2ccccc2C1)=C1/CCCc2c1cnn2-c1ccccc1.O=C(O)C(=O)O	–	–	–	–	217 to 218
C(/CN1CCC(c2ccccc2)C1)=C1/CCCc2c1cnn2-c1ccccc1 (stereo not shown) [Example 24, (E)-4,5,6,7-tetrahydro-1-phenyl-4-(2-(3-phenylpyrrolidin-1-yl)ethylidene)-1H-indazole]	100	1.1	103	49.5	–
CN(CCC1CCCc2c1cnn2-c1ccccc1)Cc1ccccc1 (stereo not shown) [Example 54, N-benzyl-2-(4,5,6,7-tetrahydro-1-phenyl-1H-indazol-4-yl)-N-methylethanamine]	105	8.7	100	–	–
C(/CN1CCCCC1)=C1/CCCc2c1cnn2-c1ccccc1 [Example 27, (E)-4,5,6,7-tetrahydro-1-phenyl-4-(2-(piperidin-1-yl)ethylidene)-1H-indazole]	99.6	7.5	77	–	–
Fc1ccc(-n2ncc3c2CCCC3CCN2CCOCC2)cc1.O=C(O)C(=O)O (stereo not shown) [Example 66, 1-(4-fluorophenyl)-4,5,6,7-tetrahydro-4-(2-(morpholin-4-yl)ethyl)-1H-indazole oxalate]	98.1	2.4	–	–	148 to 151
